Tests used:
Type in all cases: cell-based
[1] = system: decorin; assay: Dot blot assay for decorin synthesis in human dermal fibroblasts; conditions: primary human foreskin fibroblasts, 24 hours, relative to vehicle control; effect similar to retinoic acid
Experimental: Procedure For Measuring Procollagen-I and Decorin Synthesis in Human Dermal Fibroblasts
Preparation of Dermal Fibroblast Conditioned Medium
Primary human foreskin fibroblasts at passage 2 (P2) were seeded into 12-well plates at 10000 cells/cm^2 and maintained for 24 hours in an atmosphere of 5% carbon dioxide and 4% oxygen in Dulbeccos Modified Eagles Medium (DMEM) supplemented with 10% foetal calf serum. After this time the cells were washed with serum free DMEM and then incubated in fresh serum free DMEM for a further 60 hours. The fibroblast monolayers were then washed again with serum free DMEM. […] This fibroblast conditioned medium was either analyzed immediately or snap frozen in liquid nitrogen and stored at −70° C. for future analysis. The cells were then counted and data from the dot-blot analysis subsequently standardized to cell number. […]
Following this the Immobilon strips were again washed with TBS/Tween 20 (3×5 minutes) before being allowed to dry in air at room temperature. […] Dot intensity was assessed by computer-assisted image TM analysis using the quantification tools in ImageQuant™, standardized to cell number and the effects of various test reagents on decorin and procollagen-I synthesis were determined relative to a vehicle treated control value of 100 arbitrary units.

[2] = target: T1, PPARα (Homo sapiens, UniProt Q07869); assay: Reporter gene assay (PPARα) in transfected Cos-7 cells; conditions: 10 μM, 24 hours
T1 construct: expressed in transfected cells; host or cells: Cos-7 cells (ECACC No. 87021302), transient transfection with LipofectAMINE
T1 sequence (Q07869 1-468): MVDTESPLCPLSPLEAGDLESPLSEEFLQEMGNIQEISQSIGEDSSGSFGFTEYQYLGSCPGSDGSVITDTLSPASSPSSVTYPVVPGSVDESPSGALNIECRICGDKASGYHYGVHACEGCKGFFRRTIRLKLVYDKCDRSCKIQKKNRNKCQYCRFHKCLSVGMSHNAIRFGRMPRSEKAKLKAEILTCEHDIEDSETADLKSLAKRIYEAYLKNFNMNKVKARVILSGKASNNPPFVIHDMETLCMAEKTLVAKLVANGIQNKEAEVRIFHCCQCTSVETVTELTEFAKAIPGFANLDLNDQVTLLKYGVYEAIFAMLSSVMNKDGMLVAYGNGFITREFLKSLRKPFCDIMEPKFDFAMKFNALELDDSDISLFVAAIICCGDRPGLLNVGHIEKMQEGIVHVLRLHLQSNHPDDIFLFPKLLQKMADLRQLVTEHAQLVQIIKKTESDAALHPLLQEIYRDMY
Experimental: The following assay protocol is responsive to ligands of PPARα or retinoid X receptor.
Reporter Gene Assay Protocol
Cos-7 cells (ECACC No. 87021302) were routinely grown in DMEM with 10% FCS (foetal calf serum) at 37° C., 5% CO2 to 80% confluency. Transient transfections were performed as described by the manufacturers (GibcoBRL). Briefly, cells were plated out in 24 well plates at 50,000 cells per well and incubated overnight in DMEM with 10% FCS at 37° C., 5% CO2,. Cells were then transfected using the LipofectAMINE reagent. For each well, 0.5 μg of DNA mix (for “control” cells pPPRE3TK-luc 0.40 μg; pRL-TK 0.04 μg; pcDNA3.1(−) 0.03 μg; pRSV 0.03 μg; for “plus RXRα” cells pPPRE3TK-luc 0.40 μg; pRL-TK 0.04 μg; pcDNA3.1(−) 0.03 μg; pRSV/RXRα 0.03 μg; for “plus PPARα” cells pPPRE3TK-luc0.40 μg; pRL-TK 0.04 μg pcDNA3.1(−)/PPARα 0.03 μg pRSV 0.03 μg) in 25 μl of DMEM was incubated with 1 μl LipofectAMINE, also in 25 μl of DMEM for 45 minutes.
The mixture was then made up to 250 μl per well and added to the cells, which had been washed with 1 ml of DMEM. Cells were then incubated for 5 hours at 37° C., 5% CO2, and 250 μl DMEM with 20% SBCS (charcoal stripped bovine calf serum (Sigma)) added. Cells were allowed to recover for 18 hours at 37° C., 5% CO2 before being treated. […]

[3] = system: Corynebacterium A NCIMB 40928; assay: In vitro model of fatty acid catabolism by corynebacteria A (TVC, glucose and pentadecanoic acid utilisation); conditions: 24 h
Experimental: An in vitro model system, reproducing fatty acid catabolism by corynebacteria A, consisted of 250 ml baffled shake flasks, to which were added 30 ml semi-synthetic medium (see below) supplemented with fatty acid substrate (2.0 mg/ml pentadecanoic acid) and non-fatty acid substrate (0.5 mg/ml glucose). This system was employed to evaluate sargahydroquinoic acid as a potential deodorant active: to each flask (other than the control) was added and specific dose of sargahydroquinoic acid (isolated from Kombo nut oil at >90% purity), from a 25 g/l stock emulsion in semi-synthetic medium supplemented with 5.0 mg/ml Gum Arabic (formed by ultra-homogenisation at 24000 rpm for 1 min) Flasks were inoculated with fresh bacterial biomass (Corynebacterium A NCIMB 40928), pre-grown for 24 h in TSBT (see below), to give starting optical densities (A5 9 0) of ˜1.0. Following inoculation, flasks were incubated aerobically at 35°0 C., with agitation (130 rpm), and analysed at 24 h. Culture viability was determined by total viable count (TVC) analysis on TSAT plates (see below) following serial dilution in quarter-strength Ringers solution. Fatty acid concentrations were determined by capillary gas chromatography (GC) (see below), while residual glucose levels were measured with blood glucose test strips (BM-Test 1-44; Boehringer Mannheim) used in conjunction with a ReflofluxS glucose meter (Boehringer Mannheim). A ‘sub-lethal’ effect is defined as significant inhibition of fatty acid catabolism, typically greater than 50% inhibition of pentadecanoic acid utilization, without concomitant reductions in Corynebacterium A viability (≦1 log10 CFU/ml reduction) or glucose utilization (≦10% reduction). Outside one or both of these defined boundaries, the effect may be described as ‘antimicrobial’, where ‘antimicrobial’ includes both bacteriostatic & bactericidal effects. Composition of Tween-supplemented Tryptone soya broth & agar (TSBT & TSAT) used for growth & maintenance of axillary bacterial (g/l): Tryptone soya broth (30.0); Yeast Extract (Beta Lab) (10.0); Tween 80™ (1.0); ± Agar (20.0). Composition of semi-synthetic medium used in in vitro system simulating fatty acid catabolism by corynebacteria A (g/l): KH2PO, (1.6);(NH4) 2HPO4(5.0); Na2SO4 (0.38); Yeast Nitrogen Base (Difco)(3.35); Yeast Extract (Beta Lab)(0.5); Tween 80™ (0.2); Triton X-100™ (0.2); MgCl2.6H20(0.5). Fatty acid levels in the flasks were determined by capillary GC analysis. Initially, 5.0 ml aliquots from each flask were transferred into universal tubes; an internal standard (lauric acid, 1.0 mg/ml final concentration) was added to each tube and the culture medium acidified (pH ˜2) by the addition of hydrochloric acid. Liquid-liquid extraction was then carried out using 2 vol (10 ml) ethyl acetate; organic and aqueous phases were resolved by centrifugation (2000 rpm, 3 min). ˜0.75 ml of each organic (upper) phase was then transferred to a sampling vial prior to analysis on a Perkin Elmer 8000 (Series 2) GC fitted with a 15 m ×0.32 mm (internal diameter) FFAP (nitroterephalic acid modified PEG/siloxane copolymer) fused silica capillary column (film thickness […]) (Quadrex). This column was attached to the split-splitless injector and flame ionisation detector (FID) of the GC; injector and detector temperatures were each 300° C. Carrier gas for the column was helium (6 psi), while hydrogen (17 psi) and air (23 psi) supplied the FID. The temperature programme for fatty acid analysis was 80° C.(2 min); 80-250° C. (20° C./min); 250° C. (5 min). Sample size for injection was 0.5-1.0 μl . Fatty acid levels in the flasks were quantified by comparison of peak areas with known levels of both internal (lauric acid) and externally-run (pentadecanoic acid) standards.

CC(C)=CCC/C(=C/CC/C(C)=C/CC/C(C)=C/Cc1cc(O)cc(C)c1O)C(=O)O [Sargahydroquinoic acid]
effect on decorin production (FIG. 1) [1]: enhances decorin production | PPARα ligand activity in reporter gene assay (FIG. 2) [2]: is a ligand for PPARα | Glucose Utilisation ([3]; 0.05 g/l): 100% | Pentadecanoic Acid Utilisation ([3]; 0.05 g/l): 99% | TVC ([3]; 0.05 g/l): 8.67 log10 CFU/ml | Glucose Utilisation ([3]; 0.1 g/l, * sub-lethal): 100* % | Pentadecanoic Acid Utilisation ([3]; 0.1 g/l, * sub-lethal): 58* % | TVC ([3]; 0.1 g/l, * sub-lethal): 8.83* log10 CFU/ml | Glucose Utilisation ([3]; 0.25 g/l, * sub-lethal): >90* % | Pentadecanoic Acid Utilisation ([3]; 0.25 g/l, * sub-lethal): 15* % | TVC ([3]; 0.25 g/l, * sub-lethal): 7.93* log10 CFU/ml | Glucose Utilisation ([3]; 0.5 g/l, * sub-lethal): 100* % | Pentadecanoic Acid Utilisation ([3]; 0.5 g/l, * sub-lethal): 19* % | TVC ([3]; 0.5 g/l, * sub-lethal): 7.85* log10 CFU/ml | Glucose Utilisation ([3]; 1.0 g/l, antimicrobial effect): >90% | Pentadecanoic Acid Utilisation ([3]; 1.0 g/l, antimicrobial effect): 5% | TVC ([3]; 1.0 g/l, antimicrobial effect): 7.3 log10 CFU/ml | Glucose Utilisation ([3]; 2.5 g/l, antimicrobial effect): 7% | Pentadecanoic Acid Utilisation ([3]; 2.5 g/l, antimicrobial effect): 25% | TVC ([3]; 2.5 g/l, antimicrobial effect): <3.0 log10 CFU/ml | inhibition at 50 µg/mL ([3]; Corynebacterium, NCIMB40928, 0.05 g/l, in parentheses = not significant): 1% | inhibition at 100 µg/mL ([3]; Corynebacterium, NCIMB40928, 0.1 g/l, * sub-lethal): 42% | inhibition at 250 µg/mL ([3]; Corynebacterium, NCIMB40928, 0.25 g/l, * sub-lethal): 85% | inhibition at 500 µg/mL ([3]; Corynebacterium, NCIMB40928, 0.5 g/l, * sub-lethal): 81% | inhibition at 1000 µg/mL ([3]; Corynebacterium, NCIMB40928, 1.0 g/l, antimicrobial effect): 95% | inhibition at 2500 µg/mL ([3]; Corynebacterium, NCIMB40928, 2.5 g/l, antimicrobial effect): 75%

From patent US20030206936A1, “Cosmetic composition and method of treating skin and hair” (Unilever Home & Personal Care USA, Division of Conopco, Inc., priority 2002, published 2003)
